Measured values published in patent EP4792822A1, “USE OF PEPTIDE AMIDE COMPOUND IN PREPARATION OF DRUG FOR […] AND VOMITING” (Haisco Pharmaceutical Group Co., Ltd., priority 2023, dated 2025).

System: tumour subjects planned to receive highly emetogenic chemotherapy for the first time
Assay: Example 4: active-controlled dose-finding study of compound 1 injection for the prevention of chemotherapy-induced nausea and vomiting (CINV)
Type: in vivo, patients
Protocol: Study period: Treatment duration: Within 120 h after the first administration of highly emetogenic chemotherapeutic agents; Follow-up duration: Day 10 ± 1 after the first administration of highly emetogenic chemotherapeutic agents.
Protocol: This study was a multicentre, randomised, double-blind, active-controlled study. About 180 tumour subjects planned to receive highly emetogenic chemotherapy for the first time were randomised in a 1 : 1 : 1 ratio to three groups, with 60 subjects per group. Pre-chemotherapy study drug administration was completed 30 ± 10 min before the start of administration of the highly emetogenic chemotherapeutic agents. The dosing regimen was as follows: administration was performed in the following order: • 1) Compound 1 (placebo)/compound 1: A single dose was administered 30 ± 10 min before the start of administration of highly emetogenic chemotherapeutic agents, via intravenous bolus injection, with an intravenous bolus injection time of not less than 30 s. • 2) Dolasetron mesylate injection/dolasetron mesylate injection matching placebo: After the administration of compound 1/compound 1 (placebo), 5 ml (100 mg) of dolasetron mesylate injection/matching placebo was administered via intravenous bolus injection without dilution, and the infusion line was flushed with normal saline before and after administration. […]

Q: CC(=O)N1CC2(CCN(C(=O)[C@@H](CCCCN)NC(=O)[C@@H](CC(C)C)NC(=O)[C@@H](Cc3ccccc3)NC(=O)[C@H](N)Cc3ccccc3)CC2)C1 [Compound 1, (2R)-N-[(1R)-1-(2-acetyl-2,7-diazaspiro[3.5]nonane-7-carbonyl)-5-amino-pentyl]-2-[[(2R)-2-[[(2R)-2-amino-3-phenyl-propionyl]amino]-3-phenylpropionyl]amino]-4-methyl-pentanamide] was tested. Which overall safety (Example 4) did it give?
A: Its overall safety is “good overall safety”.

Q: What about the “effect on CINV” value (Example 4, with dolasetron/aprepitant/dexamethasone background regimens) of the same molecule?
A: The value was “preventive and/or ameliorating effect on CINV”.
